Test results taken from PMC7576778, “The tomato receptor CuRe1 senses a cell wall protein to identify Cuscuta as a pathogen” (Nature Communications, 2020).
Values joined by “and” are separate entries in the source; they are usually repeats but may differ in a detail not shown here. Identical values can stand only once.

Tests used:
[1] = target: Cuscuta Receptor 1 (CuRe1), myc-tagged (tomato (Solanum lycopersicum))
CuRe1 [2] = assay: Ethylene bioassay, leaf pieces of transgenic CuRe1-expressing N. benthamiana; type: cell-based, S. lycopersicum (tomato), expressed in N. benthamiana; design: ethylene measurement, average: unit not given here; settings: for activity in CuRe1-dependent ethylene induction (in words) / concentration at which ethylene production is triggered (minimum effective concentration): CuRe1-expressing N. benthamiana leaves; for concentration at which ethylene production is triggered (minimum effective concentration): dose-dependent ethylene bioassay; for Ethylene, MW: RepFig 3a_2, H2O
Protocol: (§1) All obtained extracts or collected fractions after each purification step, as well as the isolated CrGRP or synthesized Crip peptides were tested for bioactivity in the ethylene assay as previously described. For this we cut leaf samples of analyzed plants in 3 × 3 mm squares and float them on a water surface. After incubation over night at RT, three leaf pieces are carefully collected into glass tubes (6 ml) with 500 µl water. Samples were treated as indicated as well as amounts of used extracts or concentrations of peptides. After treatment tubes were sealed with a rubber plug and incubated at RT on a horizontal shaker (85–100 rpm) for 3 h. All samples were analyzed with a Gaschromatograph (Shimadzu, GC-2014, glass column 3 mm × 1.6 m with Al2O3) by manually injecting 1 ml of the gaseous phase.

[3] = tested on: leaves of S. lycopersicum, IL 12-2, IL 8-1-1 and S. pennellii; assay: Hypersensitive response (HR) cell death after peptide infiltration into tomato leaves; type: in vivo; settings: 7 days
Protocol: For monitoring hypersensitive responses (HR) in leaves, 35S::CrGRP:GFP or 35S::GFP constructs were expressed in either transgenic, CuRe1-expressing or wt N. benthamiana plants. Leaves were infiltrated as described above using the defined volume of 200 µl; infiltration area was carefully labeled with a black marker. Pictures were taken 7 days post infiltration. For detecting HR-symptoms in tomato plants, two leaves of three plants (six leaves total; per introgression line or wildtype) were infiltrated with 100 µl of a 100 nM peptide solution; infiltrated leaf area was labeled with a pen immediately after infiltration and photographs were taken 7 days post peptide infiltration.

[4] = MS analysis of Crip21 treated with NH4OH or ethylamine; type: physicochemical; settings: 12.5% NH4OH or 70% ethylamine
Protocol: The Cuscuta factor (CuF) could be inactivated by incubating it either with 12.5% NH4OH or 70% ethylamine for 1 h at 45 °C.
49 Supplementary Fig. 5. Inactivation of Crip21 by treatments with NH4OH or Ethylamine; (a) Crip21
51 biosynthesis in CuRe1-expressing N. benthamiana leaves. Peptide samples were applied at
52 concentrations of 100 nM. Bovine serum albumin (BSA; 0.01 mg/ml) buffered in 25 mM MES (pH
53 5.7) was added as mock control. FW, fresh weight; ethylene measurements show means of three
54 technical replicates; error bars denote SD. (b) incubation with NH4OH or Ethylamine leads to
56 products with different masses.
(1 picture or pasted object on this page, not shown here)

S. lycopersicum = assay: Ethylene bioassay, leaf pieces of cultivated tomato; type: cell-based; settings: Suppl.Fig6c, peptides applied at 5 µM each, mean of the samples
Protocol: as §1

N. benthamiana wt = assay: Ethylene bioassay, leaf pieces of wildtype N. benthamiana; type: cell-based
Protocol: as §1

CuRe1 [5] = assay: Affinity-crosslinking of bio-Crip29 with CuRe1 in planta; type: binding, S. lycopersicum (tomato), expressed in N. benthamiana
Protocol: In vivo cross-linking of biotin-Crip29 (Crip29 aa-sequence: […]) to CuRe1 was performed as described; leaves of N. benthamiana expressing 35S::CuRe1:myc, or control plants (N. benthamiana expressing 35S::RLP23:myc) were infiltrated with biotinylated bio-Crip29 (10 nM in ddH2O) with or without unlabeled Crip21 (or unlabeled Crip82-106) (10 μM) as competitor or with flg22 peptide as competition control. Five minutes after peptide treatment 2 mM EGS (ethylene glycol bis(succinimidyl succinate) in 25 mM HEPES buffer (pH 7.5) was infiltrated into the same leaves for cross-linking of peptides to the receptor proteins. Twenty minutes after cross-linking, leaf samples were harvested and frozen in liquid nitrogen; immunoprecipitations were performed against the myc tag present at the c-terminus of CuRe1 using myc-trap agarose beads (ChromoTek, IZB Martinsried, Germany) as described above. All peptides, including biotinylated bio-Crip29, were synthesized by GenScript® and ordered with a purity of >95%. Biotinylated Crip29 was detected on blots by Streptavidine-conjugated Alkaline Phosphatase (Strep-AP, Roche diagnostics; Streptavidin-AP conjugate, Cat. No.: 11089161001, dilution: 1:1000 in 5% Albumin Fraction V, biotin-free).

[6] = RepFig3b_2, 0.01 nM, mean of 3 samples
[7] = RepFig3b_2, 0.1 nM, mean of 3 samples
[8] = RepFig3b_2, 1 nM, mean of 3 samples
[9] = RepFig3b_2, 10 nM, mean of 3 samples
[10] = RepFig3b_2, 100 nM, mean of 3 samples
[11] = Fig3a + Supl4, N. benthamiana CuRe1, peptide 1 nM, mean of 3 technical replicates
[12] = Fig3a + Supl4, N. benthamiana CuRe1, peptide 10 nM, mean of 3 technical replicates
[13] = Fig3a + Supl4, N. benthamiana CuRe1, peptide 100 nM, mean of 3 technical replicates

Which ethylene production in CuRe1-expressing N. benthamiana, dose series of peptide [1] does the source give for CrGRP82-106 synthetic peptide here?
Its ethylene production in CuRe1-expressing N. benthamiana, dose series of peptide is greater than 0.1 nM.

With “Crip21: 21 aa cysteine-rich peptide, minimal epitope of C. reflexa glycine-rich protein CrGRP, synthesized (NCGNSGCCGGAYSNGQCKRCC)” as the substance, how does the “ethylene-inducing bioactivity after treatment with NH4OH” value (CuRe1 [2]; 12.5% NH4OH, 1 h at 45 °C, read-out ethylene in CuRe1 N. benthamiana, peptide 100 nM) read?
Its value is “lost all of its activity”.

What about the “ethylene-inducing bioactivity after treatment with ethylamine” value (CuRe1 [2]; 70% ethylamine, 1 h at 45 °C, read-out ethylene in CuRe1 N. benthamiana, peptide 100 nM) of the same substance?
The value was “loose activity”.

What about the “activity in CuRe1-dependent ethylene induction (in words)” value (CuRe1 [2]) of the same substance?
Its value is “full activity”.

And the “concentration at which ethylene production is triggered (minimum effective concentration)” value (CuRe1 [2])?
Its value is greater than 0.1 nM.

And the “ethylene, average” value (CuRe1 [2]; Fig3a + Supl4, N. benthamiana CuRe1, amount printed as 1 µl, mean of 3 technical replicates)?
The value was 10.

What about the “ethylene, average” value (CuRe1 [2]; [6]) of the same substance?
The value was 0.2767.

What about the “ethylene, average” value (CuRe1 [2]; [7]) of the same substance?
The value was 1.39.

What about the “ethylene, average” value (CuRe1 [2]; [8]) of the same substance?
Its value is 4.143.

What about the “ethylene, average” value (CuRe1 [2]; [9]) of the same substance?
The value was 8.283.

What about the “ethylene, average” value (CuRe1 [2]; [10]) of the same substance?
Its value is 9.4.

What about the “ethylene, average” value (CuRe1 [2]; Suppl.Fig5, N. benthamiana CuRe1, peptide samples 100 nM, untreated or treated with 12.5% NH4OH / 70% ethylamine, mean of 9 samples, values <0.2 not collected) of the same substance?
The value was 3.844.

And the “ethylene, average” value (CuRe1 [2]; Suppl.Fig6b, N. benthamiana CuRe1, 0.01 nM, mean of 3)?
The value was 0.375 pmol/ml air.

What about the “ethylene, average” value (CuRe1 [2]; Suppl.Fig6b, N. benthamiana CuRe1, 0.1 nM, mean of 3) of the same substance?
The value was 0.45 pmol/ml air.

And the “ethylene, average” value (CuRe1 [2]; Suppl.Fig6b, N. benthamiana CuRe1, 1 nM, mean of 3)?
Its value is 1.1 pmol/ml air.

What about the “ethylene, average” value (CuRe1 [2]; Suppl.Fig6b, N. benthamiana CuRe1, 10 nM, mean of 3) of the same substance?
The value was 2.8 pmol/ml air.

What about the “ethylene, average” value (CuRe1 [2]; Suppl.Fig6b, N. benthamiana CuRe1, 100 nM, mean of 3) of the same substance?
Its value is 11.3 pmol/ml air.

What about the “ethylene, average” value (CuRe1 [2]; Suppl.Fig6b, N. benthamiana CuRe1, 1000 nM, 3 leaf pieces + 0.5 ml H2O / 6 ml tube, 3 h RT, mean of 3) of the same substance?
The value was 11.6 pmol/ml air.

And the “ethylene measurement, average” value (CuRe1 [2]; Suppl.Fig6c, N. benthamiana Cure1, peptides applied at 5 µM each, mean of the samples)?
The value was 9.564.

And the “HR-type cell death, plants lacking CuRe1” value ([3]; leaves of S. pennellii and IL8-1-1 infiltrated with 100 nM peptide)?
Its value is “did not”.

What about the “HR-type cell death, plants with functional CuRe1” value ([3]; leaves of cultivated tomato (S. lycopersicum) or IL 12-2 infiltrated with 100 nM peptide) of the same substance?
Its value is “showed Crip21-dependent cell death”.

And the “peptide mass signal after incubation with NH4OH or ethylamine” value [4]?
Its value is “disappearance of the peptide mass signal”.

And the “ethylene measurement, average” value (S. lycopersicum)?
The value was 20.1539.

What about the “ethylene, average” value (N. benthamiana wt; Fig3a + Supl4, amount printed as 1 µl, mean of 3) of the same substance?
The value was 0.2667.

And the “ethylene, average” value (N. benthamiana wt; Suppl.Fig5, peptide samples 100 nM, mean of 3, values <0.2 not collected)?
Its value is 0.2.

What about the “ethylene measurement, average” value (N. benthamiana wt; Suppl.Fig6c, peptides applied at 5 µM each, mean of the samples) of the same substance?
The value was 0.1967.

For “GGGGSGHGGHGKGKN [GRP15, 15 aa peptide that served as fingerprint for identification of CrGRP]”, which “activity in CuRe1-dependent ethylene induction (in words)” value (CuRe1 [2]) is on record?
The value was “completely inactive”.

What about the “ethylene, average” value (CuRe1 [2]; [11]) of the same substance?
Its value is 0,2 and 0.2127.

And the “ethylene, average” value (CuRe1 [2]; [12])?
Its value is 0,3 and 0.2733.

What about the “ethylene, average” value (CuRe1 [2]; [13]) of the same substance?
The value was 0,6 and 0.5933.

What about the “ethylene, average” value (CuRe1 [2]; Fig3a + Supl4, N. benthamiana CuRe1, peptide 1000 nM, mean of 3 technical replicates) of the same substance?
The value was 0,4 and 0.3733.

What about the “activity at 100 µM” value (CuRe1 [2]; authors' reply in peer review file, refers to Supplementary Fig. 4) of the same substance?
The value was “no activity”.

Which results are given for “GKGKNCGNSGCCGGAYSNGQCKRCCAYKG [bio-Crip29]”?
activity in CuRe1-dependent ethylene induction (in words) (CuRe1 [2]): as active as Crip21; ethylene, average (CuRe1 [2]; [6]): 0.2933; ethylene, average (CuRe1 [2]; [7]): 0.34; ethylene, average (CuRe1 [2]; [8]): 1.017; ethylene, average (CuRe1 [2]; [9]): 5.31; ethylene, average (CuRe1 [2]; [10]): 7.693; biotin labelling of CuRe1 immunoprecipitates (CuRe1 [5]; bio-Crip29 10 nM infiltrated, crosslinked with 2 mM EGS, myc-trap IP, Strep-AP blot): clear labelling

Which results are given for “GKNCGNSGCCGGAYSNGQCKRCCAY [CrGRP82-106, synthetic peptide representing CrGRP residues 82-106]”?
concentration at which ethylene production is triggered (minimum effective concentration) (CuRe1 [2]): ≥ 0.1 nM; ethylene, average (CuRe1 [2]; [11]): 5.823; ethylene, average (CuRe1 [2]; [12]): 8.73; ethylene, average (CuRe1 [2]; [13]): 9.817; Ethylene, MW (CuRe1 [2]; 1 nM, 3 h RT, mean of 3 samples): 1.5 pmol/ml air; Ethylene, MW (CuRe1 [2]; 10 nM, 3 h RT, mean of 3 samples): 4.6 pmol/ml air; Ethylene, MW (CuRe1 [2]; 100 nM, 3 h RT, mean of 3 samples): 8.9 pmol/ml air; ethylene, average (CuRe1 [2]; [6]): 0.29; ethylene, average (CuRe1 [2]; [7]): 1.63; ethylene, average (CuRe1 [2]; [8]): 3.067; ethylene, average (CuRe1 [2]; [9]): 8.457; ethylene, average (CuRe1 [2]; [10]): 11.2833; ethylene, average (N. benthamiana wt; Fig3a + Supl4, peptide 100 nM, mean of 3): 0.2267

For “non-modified Crip: unlabeled Crip21 or Crip82-106 (10 µM) used as competitor in crosslinking (NCGNSGCCGGAYSNGQCKRCC)”, which “competition of bio-Crip29 labelling of CuRe1” value (CuRe1 [5]; bio-Crip29 10 nM with excess competitor (10 µM)) is on record?
Its value is “absent”.
